Measured values from patent publication US10894052B2, “Heterocyclic inhibitors of ATR kinase” (Board of Regents, The University of Texas System, priority 2018, dated 2021).
Where two headings read alike, the source gives them in different places.

Key:
ATR/ATRIP complex = ATR/ATRIP complex (Homo sapiens (Human), UniProt Q13535); assay: ATR/ATRIP enzymatic assay (Caliper-based); type: biochemical; details: ATR/ATRIP enzyme; FAM-labeled RAD17 peptide, ATP
Description: (§1) The ability of the compounds of Formula I to inhibit the catalytic activity of the ATR/ATRIP complex was measured in a Caliper-based assay, and in HT-29 cells in an Alphascreen assay, following the ATR-mediated phosphorylation of CHK1, described below.
Human full-length FLAG-TEV-ATR and His6-ATRIP were co-expressed in HEK293 cells. […] The sample was loaded into a column, and then washed with buffer A three times. Protein was subsequently eluted with 2 ml of buffer B (buffer A+200 μg/ml 3×FLAG peptide).
The ability of new chemical matter to inhibit the ATR catalytic activity in this ATR/ATRIP complex was assessed using a Caliper-based assay. A 2× enzyme solution (i.e., 4 nM enzyme) was prepared using 1× Kinase Reaction Buffer (25 mM HEPES pH 8, 0.0055% Brij-35, 10 mM MnCl2, and 1 mM DTT). […] 10 μL of the 2× enzyme solution was transferred to an assay plate containing 60 nL of test compound (from a 3× serial dilution) in 100% DMSO. Following a 30-min incubation at 28° C., 10 μL of the 2× peptide solution was then transferred to the same assay plate. The reaction incubated at 28° C. for 6 h. After adding 30 μL stop buffer (100 mM HEPES pH 7.5, 0.015% Brij-35, 0.2% Coating-3 Reagent (PerkinElmer, catalog #PN760050), and 50 mM EDTA), data were collected on a Caliper instrument. Conversion values were converted to inhibition values via the following equation: % inhibition=(max−conversion)/(max−min)*100, wherein “max” corresponds to the DMSO control, and “min” corresponds to the low control. IC50 values were calculated using the following equation in XLFit: Y=Bottom+(Top−Bottom)/1+(IC50/X)^HillSlope).

[1] = tested on: ATR-driven phosphorylation of Chk1 kinase at Serine 345 in HT-29 cells; assay: pCHK1 cellular assay (CHK1 p-Ser345 AlphaScreen SureFire); type: cell-based; details: HT-29 colorectal adenocarcinoma cells, 4-nitroquinoline N-oxide 12 μM, read-out: Cell IC50 (pCHK1)
Description: as §1
Cellular IC50 for the inhibitors of ATR described herein were measured in HT-29 colorectal adenocarcinoma cells.
The microplate was incubated overnight (approximately 20 hours) at 37° C. with 5% CO2 and ambient O2. Stock solutions of the test compounds were prepared in 100% DMSO (Sigma, Catalog #D2650) and serially diluted 1:3 using 100% DMSO. Compounds were additionally diluted 1:33 in culture medium, and 10 μL/well were transferred to the tissue culture plate. Following the compound addition, the microplate was incubated at 37° C. for 90 minutes. […] The cells were then washed with PBS and lysed using 10 μL/well […]® Kit lysis buffer diluted to 1× in water (PerkinElmer Catalog #TGRCHK1S50K), with mixing on an orbital shaker at 500 rpm for 20 min at room temperature. Lysates were frozen at −20 OC overnight.
The pCHK1 ALPHASCREEN® signal was measured using an ENVISION® plate reader (PerkinElmer). IC50 values were calculated using a four-parameter logistic curve fit using Genedata Screener software. Percent of control for each compound concentration was calculated by the following formula: 100*(Compound−Min)/(Max−Min), where “Max” is the high control, DMSO, and “Min” is the low control, 5 μM ATR inhibitor.

Chain of ATR/ATRIP complex (Q13535 whole entry): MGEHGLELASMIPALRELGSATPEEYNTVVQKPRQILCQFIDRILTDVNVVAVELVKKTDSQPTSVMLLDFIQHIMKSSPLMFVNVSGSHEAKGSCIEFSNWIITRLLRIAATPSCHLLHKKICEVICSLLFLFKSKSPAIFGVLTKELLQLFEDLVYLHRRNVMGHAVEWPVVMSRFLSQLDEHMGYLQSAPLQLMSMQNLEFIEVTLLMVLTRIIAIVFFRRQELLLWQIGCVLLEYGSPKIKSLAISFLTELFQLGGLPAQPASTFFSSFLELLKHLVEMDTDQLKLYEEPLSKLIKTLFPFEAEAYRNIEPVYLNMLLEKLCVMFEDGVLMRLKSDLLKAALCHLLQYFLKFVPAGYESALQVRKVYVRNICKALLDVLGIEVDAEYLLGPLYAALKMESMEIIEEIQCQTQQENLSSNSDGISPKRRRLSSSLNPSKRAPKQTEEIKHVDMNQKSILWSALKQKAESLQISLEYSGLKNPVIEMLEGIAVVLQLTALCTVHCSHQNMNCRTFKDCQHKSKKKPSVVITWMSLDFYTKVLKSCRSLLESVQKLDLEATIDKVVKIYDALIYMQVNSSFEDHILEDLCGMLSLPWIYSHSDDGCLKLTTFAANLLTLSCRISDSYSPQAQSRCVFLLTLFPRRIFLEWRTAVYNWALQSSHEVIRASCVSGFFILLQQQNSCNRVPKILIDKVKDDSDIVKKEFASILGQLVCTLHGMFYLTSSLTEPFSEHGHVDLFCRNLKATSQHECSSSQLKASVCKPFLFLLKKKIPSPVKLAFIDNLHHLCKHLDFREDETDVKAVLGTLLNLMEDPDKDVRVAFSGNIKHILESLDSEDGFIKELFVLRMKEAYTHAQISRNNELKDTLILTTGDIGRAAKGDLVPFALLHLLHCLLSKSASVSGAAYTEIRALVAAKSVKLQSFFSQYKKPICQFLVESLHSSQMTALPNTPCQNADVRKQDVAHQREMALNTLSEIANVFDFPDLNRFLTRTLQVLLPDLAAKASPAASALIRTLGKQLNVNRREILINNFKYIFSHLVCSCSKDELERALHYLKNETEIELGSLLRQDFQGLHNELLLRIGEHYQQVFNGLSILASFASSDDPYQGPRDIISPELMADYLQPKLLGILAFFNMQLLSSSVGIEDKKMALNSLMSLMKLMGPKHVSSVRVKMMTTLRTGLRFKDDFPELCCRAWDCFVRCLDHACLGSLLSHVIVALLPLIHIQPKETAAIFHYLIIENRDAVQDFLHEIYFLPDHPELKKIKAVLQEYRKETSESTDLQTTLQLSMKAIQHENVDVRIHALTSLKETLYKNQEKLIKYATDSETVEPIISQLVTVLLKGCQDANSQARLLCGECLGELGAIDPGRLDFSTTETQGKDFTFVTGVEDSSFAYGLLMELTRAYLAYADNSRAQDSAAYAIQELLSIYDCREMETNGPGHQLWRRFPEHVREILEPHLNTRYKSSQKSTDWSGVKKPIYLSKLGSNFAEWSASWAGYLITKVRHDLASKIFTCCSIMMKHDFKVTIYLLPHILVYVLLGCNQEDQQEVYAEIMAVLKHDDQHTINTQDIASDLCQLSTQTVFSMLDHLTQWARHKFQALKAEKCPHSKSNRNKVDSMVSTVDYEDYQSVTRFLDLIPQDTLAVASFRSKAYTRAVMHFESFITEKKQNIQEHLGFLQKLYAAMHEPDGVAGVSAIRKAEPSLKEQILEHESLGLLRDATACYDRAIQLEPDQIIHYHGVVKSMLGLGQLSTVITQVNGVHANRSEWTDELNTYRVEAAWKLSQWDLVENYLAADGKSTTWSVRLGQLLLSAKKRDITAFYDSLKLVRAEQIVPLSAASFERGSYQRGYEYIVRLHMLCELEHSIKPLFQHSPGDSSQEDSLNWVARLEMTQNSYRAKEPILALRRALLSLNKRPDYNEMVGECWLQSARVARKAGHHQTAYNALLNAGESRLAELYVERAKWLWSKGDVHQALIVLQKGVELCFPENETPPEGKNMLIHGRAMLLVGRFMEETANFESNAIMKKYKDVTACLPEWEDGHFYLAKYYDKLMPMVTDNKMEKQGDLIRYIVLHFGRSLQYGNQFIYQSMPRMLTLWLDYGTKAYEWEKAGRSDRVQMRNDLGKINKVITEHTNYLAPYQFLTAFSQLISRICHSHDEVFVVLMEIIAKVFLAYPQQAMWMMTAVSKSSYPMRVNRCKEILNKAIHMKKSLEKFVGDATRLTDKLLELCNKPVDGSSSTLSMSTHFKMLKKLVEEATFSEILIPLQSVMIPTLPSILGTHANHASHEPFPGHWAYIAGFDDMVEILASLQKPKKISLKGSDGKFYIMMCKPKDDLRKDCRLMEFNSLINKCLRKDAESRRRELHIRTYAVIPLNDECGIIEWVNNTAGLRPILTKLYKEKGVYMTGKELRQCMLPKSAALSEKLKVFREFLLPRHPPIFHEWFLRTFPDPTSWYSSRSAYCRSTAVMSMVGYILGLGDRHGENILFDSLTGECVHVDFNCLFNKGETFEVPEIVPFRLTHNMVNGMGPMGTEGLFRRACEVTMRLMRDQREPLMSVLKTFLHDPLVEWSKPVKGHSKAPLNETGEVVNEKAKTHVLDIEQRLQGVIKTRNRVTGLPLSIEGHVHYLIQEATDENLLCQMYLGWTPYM
Chain of ATR/ATRIP complex (Q8WXE1 whole entry partner): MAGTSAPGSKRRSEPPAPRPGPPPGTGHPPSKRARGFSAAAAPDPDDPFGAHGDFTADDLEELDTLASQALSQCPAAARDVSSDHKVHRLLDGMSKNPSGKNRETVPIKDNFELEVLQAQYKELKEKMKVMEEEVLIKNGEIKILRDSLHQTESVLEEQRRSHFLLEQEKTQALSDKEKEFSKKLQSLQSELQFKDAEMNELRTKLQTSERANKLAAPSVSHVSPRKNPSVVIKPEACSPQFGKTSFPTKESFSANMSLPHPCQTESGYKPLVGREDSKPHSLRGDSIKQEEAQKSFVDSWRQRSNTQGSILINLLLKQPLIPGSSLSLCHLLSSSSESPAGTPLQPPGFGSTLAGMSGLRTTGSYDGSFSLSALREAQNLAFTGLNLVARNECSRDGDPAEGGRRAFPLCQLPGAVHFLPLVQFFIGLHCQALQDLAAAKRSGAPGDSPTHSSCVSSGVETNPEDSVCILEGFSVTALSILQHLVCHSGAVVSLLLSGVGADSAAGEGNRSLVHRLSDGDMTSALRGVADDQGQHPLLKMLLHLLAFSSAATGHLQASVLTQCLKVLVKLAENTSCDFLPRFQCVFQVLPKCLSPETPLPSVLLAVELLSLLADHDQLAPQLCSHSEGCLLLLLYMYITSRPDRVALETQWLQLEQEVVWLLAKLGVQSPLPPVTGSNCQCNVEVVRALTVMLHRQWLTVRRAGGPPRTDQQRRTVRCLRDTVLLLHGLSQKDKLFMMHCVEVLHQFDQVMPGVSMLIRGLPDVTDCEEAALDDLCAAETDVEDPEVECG

C[C@@H]1COCCN1c1cc(N=S(C)(C)=O)nc(-c2ccnc3[nH]cnc23)c1 [Example 2, (R)-((6-(3H-Imidazo[4,5-b]pyridin-7-yl)-4-(3-methylmorpholino)pyridin-2-yl)imino)dimethyl-λ^6-sulfanone]
IC50 (ATR/ATRIP complex): 118 nM
IC50 ([1]; Homo sapiens): 804 nM

Cc1nc2cccnc2n1-c1cc(N2CCOC[C@H]2C)cc(N=S(C)(C)=O)n1 [Example 4, (R)-Dimethyl((6-(2-methyl-3H-imidazo[4,5-b]pyridin-3-yl)-4-(3-methylmorpholino)pyridin-2-yl)imino)-λ^6-sulfanone]
IC50 (ATR/ATRIP complex): 986 nM
IC50 ([1]; Homo sapiens): 10000 nM

C[C@@H]1COCCN1c1cc(N=S(C)(C)=O)nc(-n2cnc3cccnc32)c1 [Example 5, (R)-((6-(3H-Imidazo[4,5-b]pyridin-3-yl)-4-(3-methylmorpholino)pyridin-2-yl)imino)dimethyl-λ^6-sulfanone]
IC50 (ATR/ATRIP complex): 44 nM
IC50 ([1]; Homo sapiens): 10000 nM

C[C@@H]1COCCN1c1cc(N=S(C)(C)=O)nc(-n2c(C(F)F)nc3ccccc32)c1 [Example 6, (R)-((6-(2-(Difluoromethyl)-1H-benzo[d]imidazol-1-yl)-4-(3-methylmorpholino)pyridin-2-yl)imino)dimethyl-λ^6-sulfanone]
IC50 (ATR/ATRIP complex): 5 nM
IC50 ([1]; Homo sapiens): 2320 nM

C[C@@H]1COCCN1c1cc(N=S(C)(C)=O)nc(-n2c(CO)nc3ccccc32)c1 [Example 7, (R)-((6-(2-(Hydroxymethyl)-1H-benzo[d]imidazol-1-yl)-4-(3-methylmorpholino)pyridin-2-yl)imino)dimethyl-λ^6-sulfanone]
IC50 (ATR/ATRIP complex): 16 nM
IC50 ([1]; Homo sapiens): 8620 nM

C[C@@H]1COCCN1c1cc(N=S(C)(C)=O)nc(-n2c(CF)nc3ccccc32)c1 [Example 8, (R)-((6-(2-(Fluoromethyl)-1H-benzo[d]imidazol-1-yl)-4-(3-methylmorpholino)pyridin-2-yl)imino)dimethyl-λ^6-sulfanone]
IC50 (ATR/ATRIP complex): 5 nM
IC50 ([1]; Homo sapiens): 3330 nM

C[C@@H]1COCCN1c1cc(N=S(C)(C)=O)nc(-n2c(N)nc3ccccc32)c1 [Example 9, (R)-((6-(2-Amino-1H-benzo[d]imidazol-1-yl)-4-(3-methylmorpholino)pyridin-2-yl)imino)dimethyl-λ^6-sulfanone]
IC50 (ATR/ATRIP complex): 1 nM
IC50 ([1]; Homo sapiens): 159 nM

CNc1nc2ccccc2n1-c1cc(N2CCOC[C@H]2C)cc(N=S(C)(C)=O)n1 [Example 10, (R)-Dimethyl((6-(2-(methylamino)-1H-benzo[d]imidazol-1-yl)-4-(3-methylmorpholino)pyridin-2-yl)imino)-λ^6-sulfanone]
IC50 (ATR/ATRIP complex): 1 nM
IC50 ([1]; Homo sapiens): 35 nM

C[C@@H]1COCCN1c1cc(N=S(C)(C)=O)nc(-n2cnc3ccccc32)c1 [Example 11, (R)-((6-(1H-benzo[d]imidazol-1-yl)-4-(3-methylmorpholino)pyridin-2-yl)imino)dimethyl-λ^6-sulfanone]
IC50 (ATR/ATRIP complex): 9 nM
IC50 ([1]; Homo sapiens): 3160 nM

Cc1cc2c(-c3cc(N4CCOC[C@H]4C)cc(N=S(C)(C)=O)n3)ccnc2[nH]1 [Example 12, (R)-dimethyl((6-(2-methyl-1H-pyrrolo[2,3-b]pyridin-4-yl)-4-(3-methylmorpholino)pyridin-2-yl)imino)-λ^6-sulfanone]
IC50 (ATR/ATRIP complex): 11 nM
IC50 ([1]; Homo sapiens): 99 nM

C[C@@H]1COCCN1c1cc(N=S(C)(C)=O)nc(-c2cncc3[nH]ccc23)c1 [Example 13, (R)-dimethyl((4-(3-methylmorpholino)-6-(1H-pyrrolo[2,3-c]pyridin-4-yl)pyridin-2-yl)imino)-λ^6-sulfanone]
IC50 (ATR/ATRIP complex): 9 nM
IC50 ([1]; Homo sapiens): 232 nM

COc1cc(-c2cc(N3CCOC[C@H]3C)cc(N=S(C)(C)=O)n2)c2cc[nH]c2n1 [Example 14, (R)-((6-(6-methoxy-1H-pyrrolo[2,3-b]pyridin-4-yl)-4-(3-methylmorpholino)pyridin-2-yl)imino)dimethyl-λ^6-sulfanone]
IC50 (ATR/ATRIP complex): 48 nM
IC50 ([1]; Homo sapiens): 3650 nM

C[C@@H]1COCCN1c1cc(N=S(C)(C)=O)nc(-c2ccnc(N)c2)c1 [Example 15, (R)-((2′-amino-4-(3-methylmorpholino)-[2,4′-bipyridin]-6-yl)imino)dimethyl-λ^6-sulfanone]
IC50 (ATR/ATRIP complex): 372 nM
IC50 ([1]; Homo sapiens): 875 nM

C[C@@H]1COCCN1c1cc(N=S(C)(=O)C2COC2)nc(-c2ccnc3[nH]ccc23)c1 (stereo partly drawn) [Example 17, methyl((4-((R)-3-methylmorpholino)-6-(1H-pyrrolo[2,3-b]pyridin-4-yl)pyridin-2-yl)imino)(oxetan-3-yl)-λ^6-sulfanone]
IC50 (ATR/ATRIP complex): 12 nM
IC50 ([1]; Homo sapiens): 638 nM

CCOc1cc(-c2cc(N3CCOC[C@H]3C)cc(N=S(C)(C)=O)n2)c2cc[nH]c2n1 [Example 18, (R)-((6-(6-ethoxy-1H-pyrrolo[2,3-b]pyridin-4-yl)-4-(3-methylmorpholino)pyridin-2-yl)imino)dimethyl-λ^6-sulfanone]
IC50 (ATR/ATRIP complex): 29 nM
IC50 ([1]; Homo sapiens): 470 nM

CCOc1cc(-c2cc(N3CCOC[C@@H]3C)cc(N=S(C)(C)=O)n2)c2cc[nH]c2n1 [Example 19]
IC50 (ATR/ATRIP complex): 4 nM
IC50 [1]: 195 nM

C[C@@H]1COCCN1c1cc(N=S(C)(C)=O)nc(-c2cccc3[nH]ccc23)c1 [Example 20, (R)-((6-(1H-indol-4-yl)-4-(3-methylmorpholino)pyridin-2-yl)imino)dimethyl-λ^6-sulfanone]
IC50 (ATR/ATRIP complex): 12 nM
IC50 ([1]; Homo sapiens): 364 nM

C[C@@H]1COCCN1c1cc(N=S(C)(=O)C2CC2)nc(-c2cncc3[nH]ccc23)c1 (stereo partly drawn) [Example 21, cyclopropyl(methyl)((4-((R)-3-methylmorpholino)-6-(1H-pyrrolo[2,3-c]pyridin-4-yl)pyridin-2-yl)imino)-λ^6-sulfanone]
IC50 (ATR/ATRIP complex): 9 nM
IC50 ([1]; Homo sapiens): 110 nM

C[C@@H]1COCCN1c1cc(N=S(C)(=O)C2CC2)nc(-c2cncc3[nH]ccc23)c1 (stereo partly drawn) [Example 22]
IC50 (ATR/ATRIP complex): 6 nM
IC50 [1]: 282 nM

C[C@@H]1COCCN1c1cc(N=S(C)(C)=O)nc(-c2cccc3[nH]cnc23)c1 [Example 23, (R)-((6-(1H-benzo[d]imidazol-4-yl)-4-(3-methylmorpholino)pyridin-2-yl)imino)dimethyl-λ^6-sulfanone]
IC50 (ATR/ATRIP complex): 8 nM
IC50 ([1]; Homo sapiens): 467 nM

C[C@@H]1COCCN1c1cc(N=S(C)(=O)C2COC2)nc(-c2cncc3[nH]ccc23)c1 (stereo partly drawn) [Example 24, methyl((4-((R)-3-methylmorpholino)-6-(1H-pyrrolo[2,3-c]pyridin-4-yl)pyridin-2-yl)imino)(oxetan-3-yl)-λ^6-sulfanone]
IC50 (ATR/ATRIP complex): 24 nM
IC50 ([1]; Homo sapiens): 470 nM

C[C@@H]1COCCN1c1cc(N=S2(=O)CCC2)nc(-c2ccnc3[nH]ccc23)c1 [Example 25, (R)-1-((4-(3-methylmorpholino)-6-(1H-pyrrolo[2,3-b]pyridin-4-yl)pyridin-2-yl)imino)-1-λ^6-thietane 1-oxide]
IC50 (ATR/ATRIP complex): 9 nM
IC50 ([1]; Homo sapiens): 767 nM

C[C@@H]1COCCN1c1cc(N=S(C)(C)=O)nc(-c2cncn2C)c1 [Example 35, (R)-dimethyl((6-(1-methyl-1H-imidazol-5-yl)-4-(3-methylmorpholino)pyridin-2-yl)imino)-λ^6-sulfanone]
IC50 ([1]; Homo sapiens): 9620 nM

C[C@@H]1COCCN1c1cc(N=S(C)(C)=O)nc(-c2cn[nH]c2)c1 [Example 36, (R)-dimethyl((4-(3-methylmorpholino)-6-(1H-pyrazol-4-yl)pyridin-2-yl)imino)-λ^6-sulfanone]
IC50 ([1]; Homo sapiens): 5560 nM

C[C@@H]1COCCN1c1cc(N=S(C)(C)=O)nc(-c2cc[nH]n2)c1 [Example 37, (R)-dimethyl((4-(3-methylmorpholino)-6-(1H-pyrazol-3-yl)pyridin-2-yl)imino)-λ^6-sulfanone]
IC50 ([1]; Homo sapiens): 8210 nM

C[C@@H]1COCCN1c1cc(N=S(C)(C)=O)nc(-c2ccn(C)n2)c1 [Example 38, (R)-dimethyl((6-(1-methyl-1H-pyrazol-3-yl)-4-(3-methylmorpholino)pyridin-2-yl)imino)-λ^6-sulfanone]
IC50 ([1]; Homo sapiens): 10000 nM
